# Assay results as given in US10378041B2, “Effervescent compositions and uses thereof” (3M INNOVATIVE PROPERTIES COMPANY, priority 2010, dated 2019).
# Test system: Pseudomonas putida (ATCC 31483)
# Assay: Bacterial growth in growth medium containing ceftazidime hydrate (96-well plate, turbidity)
# Assay type: cell-based
# Design: key to bacterial growth (turbidity): “+” indicates growth; “−” indicates no growth
# Details: overnight at 37° C.
# Description: Samples of growth media were prepared by dissolving a tablet of each composition in 1 liter of recovery media (modified Listeria Recovery Broth (MLRB), available from 3M Company; St. Paul, Minn.). The tablets dissolved within 4.5 minutes. A sample of growth media was prepared as a control by dissolving 10 mg of Ceftazidime hydrate powder (product number C3809-5G available from Sigma Aldrich; St. Louis, Mo.) in 1 liter of MLRB.
# A bacterial suspension was prepared by inoculating a pure culture of Pseudomonas putida (ATCC 31483 obtained from ATCC, Manassas, Va.) into tryptic soy broth (BD™ Tryptic Soy Broth; Becton Dickinson; Sparks, Md.) and incubating at 37° C. The suspension was diluted 1:1,000 in SMB (Standard Methods Buffer; 3M Company; St. Paul, Minn.). The diluted suspension was further diluted 1:10,000-diluted in SMB growth medium containing ceftazidime concentrations shown in Table 10. Four duplicates of each sample were pipetted into a 96-well plate as follows: Growth Control with no Ceftazidime hydrate; an Undiluted Control with 10 micrograms Ceftazidime hydrate/microliter of the bacterial suspension; and each dilution of inoculated medium containing the concentration of ceftazidime hydrate shown in the Table 10. The 96-well plate was incubated overnight at 37° C. and examined visually for bacterial growth. Turbidity in the well indicated growth.
smiles,measurement,setting,value
"CC(C)(O/N=C(\C(=O)N[C@@H]1C(=O)N2C(C(=O)[O-])=C(C[n+]3ccccc3)CS[C@H]12)c1csc(N)n1)C(=O)O [Powder Control, Ceftazidime hydrate]",bacterial growth (turbidity),2.5 mcg CDH/microliter,+
same,bacterial growth (turbidity),3.75 mcg CDH/microliter,+
same,bacterial growth (turbidity),5.0 mcg CDH/microliter,−
same,bacterial growth (turbidity),6.25 mcg CDH/microliter,−
same,bacterial growth (turbidity),7.5 mcg CDH/microliter,−
same,bacterial growth (turbidity),8.75 mcg CDH/microliter,−
same,bacterial growth (turbidity),Undiluted Control - 10 mcg CDH/microliter,−
same,lowest concentration of ceftazidime hydrate showing no growth,delivered in tablet or powder,5 mcg/microliter of sample
